According to patent US9517208B2, “Abuse-deterrent dosage forms” (PURDUE PHARMA L.P., priority 2013, dated 2016):

Assay: Osmolality of mixtures of crushed tablets (or drug solution) in distilled water, Osmometer Model 3250
Type: physicochemical
Conditions: 1 mg/ml, without dextrose, sodium chloride and potassium phosphate dibasic (control)
Description: The osmolality of the resulting solution may be measured by using an osmometer (e.g., Advanced® Osmometer Model 3250, manufactured by Advanced Instruments, Inc., the User's Guide (3255 Rev13 042710) of which is herein incorporated by reference).
To determine whether mixtures formed by crushing tablets formulated prior to the present invention and mixing the crushed tablets with 3 mL or 5 mL of distilled water are hypertonic, a 30 mg Roxicodone® tablet^1 (oxycodone hydrochloride tablets USP) was crushed with a mortar and pestle to a powder. […]
(§1) To determine whether the mixtures (i.e., solutions, suspensions or gels) formed by crushing these tablets and mixing the crushed tablets with 3 mL or 5 mL of distilled water are hypertonic, one tablet of each formulation was crushed with a mortar and pestle. […] The osmolality of the resulting mixtures was measured using Osmometer Model 3250 manufactured by Advanced Instruments, Inc. The following results were obtained: […]
as §1, with “tablet from” for “tablet of”, “each blend” for “each formulation”, “and pestle to a powder.” for “and pestle.”, “measured twice” for “measured”

`COc1ccc2c3c1O[C@H]1C(=O)CC[C@H]4[C@@H](C2)N(C)CC[C@]314.O=C(O)C(O)C(O)C(=O)O` [hydrocodone bitartrate] showed an Osmolality of solution of 4 mOsmol.
